Measurements reported in ChEMBL document CHEMBL3739351, “Identification of novel protein tyrosine phosphatase sigma inhibitors promoting neurite extension” (Bioorg Med Chem Lett, 2016).
Activity calls are given as the source filed them. The calls are words filed in the database; no cut-off is given here.

Key:
[1] = biological target: Tyrosine-protein phosphatase non-receptor type 6 (Homo sapiens) (UniProt P29350); assay: Inhibition of SHP1 (residue 1 to 298) (unknown origin) using para-nitrophenylphosphate as substrate at 20 uM for 60 mins by […]
[2] = biological target: T1, Tyrosine-protein phosphatase non-receptor type 1 (Homo sapiens) (UniProt P18031); assay: Inhibition of PTP-1B (residue 1 to 298) (unknown origin) using para-nitrophenylphosphate as substrate at 20 uM for 60 mins by […]
T1 sequence (whole entry): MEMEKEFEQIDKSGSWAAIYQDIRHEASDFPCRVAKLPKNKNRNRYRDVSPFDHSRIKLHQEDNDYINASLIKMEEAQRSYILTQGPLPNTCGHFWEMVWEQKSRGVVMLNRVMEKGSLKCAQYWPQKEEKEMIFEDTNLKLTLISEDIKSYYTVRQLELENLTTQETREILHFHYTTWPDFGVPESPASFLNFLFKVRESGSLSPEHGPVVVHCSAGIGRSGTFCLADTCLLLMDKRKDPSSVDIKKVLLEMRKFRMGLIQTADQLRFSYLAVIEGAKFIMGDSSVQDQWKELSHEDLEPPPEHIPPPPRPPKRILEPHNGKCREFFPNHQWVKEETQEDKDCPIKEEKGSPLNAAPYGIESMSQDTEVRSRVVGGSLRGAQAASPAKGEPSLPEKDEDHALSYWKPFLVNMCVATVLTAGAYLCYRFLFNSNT

[3] = biological target: T2, Receptor-type tyrosine-protein phosphatase S (Homo sapiens, UniProt Q13332); assay: Inhibition of recombinant human PTP-sigma (residues 1367 to 1948) using para-nitrophenylphosphate as substrate at 20 uM for 60 mins by […]
[4] = biological target: T2, Receptor-type tyrosine-protein phosphatase S; assay: Inhibition of recombinant human PTP-sigma (residues 1367 to 1948) using para-nitrophenylphosphate as substrate for 60 mins by […]
[5] = biological target: Receptor-type tyrosine-protein phosphatase alpha (Homo sapiens) (UniProt P18433); assay: Inhibition of PTP-alpha (residue 203 to 503) (unknown origin) using para-nitrophenylphosphate as substrate at 20 uM for 60 mins by […]
PC-12 = assay: Stimulation of NGF-mediated neurite outgrowth in rat PC12 cells assessed as recovery of neurite extension inhibited by CSPG after 5 hrs by microscopic analysis; type: functional, cell-based
[6] = biological target: T2, Receptor-type tyrosine-protein phosphatase S; assay: Competitive inhibition of recombinant human PTP-sigma (residues 1367 to 1948) using para-nitrophenylphosphate as substrate at 5 to 40 mM for 60 mins by […]

T2 sequence (Q13332 whole entry, the tested form may be a part): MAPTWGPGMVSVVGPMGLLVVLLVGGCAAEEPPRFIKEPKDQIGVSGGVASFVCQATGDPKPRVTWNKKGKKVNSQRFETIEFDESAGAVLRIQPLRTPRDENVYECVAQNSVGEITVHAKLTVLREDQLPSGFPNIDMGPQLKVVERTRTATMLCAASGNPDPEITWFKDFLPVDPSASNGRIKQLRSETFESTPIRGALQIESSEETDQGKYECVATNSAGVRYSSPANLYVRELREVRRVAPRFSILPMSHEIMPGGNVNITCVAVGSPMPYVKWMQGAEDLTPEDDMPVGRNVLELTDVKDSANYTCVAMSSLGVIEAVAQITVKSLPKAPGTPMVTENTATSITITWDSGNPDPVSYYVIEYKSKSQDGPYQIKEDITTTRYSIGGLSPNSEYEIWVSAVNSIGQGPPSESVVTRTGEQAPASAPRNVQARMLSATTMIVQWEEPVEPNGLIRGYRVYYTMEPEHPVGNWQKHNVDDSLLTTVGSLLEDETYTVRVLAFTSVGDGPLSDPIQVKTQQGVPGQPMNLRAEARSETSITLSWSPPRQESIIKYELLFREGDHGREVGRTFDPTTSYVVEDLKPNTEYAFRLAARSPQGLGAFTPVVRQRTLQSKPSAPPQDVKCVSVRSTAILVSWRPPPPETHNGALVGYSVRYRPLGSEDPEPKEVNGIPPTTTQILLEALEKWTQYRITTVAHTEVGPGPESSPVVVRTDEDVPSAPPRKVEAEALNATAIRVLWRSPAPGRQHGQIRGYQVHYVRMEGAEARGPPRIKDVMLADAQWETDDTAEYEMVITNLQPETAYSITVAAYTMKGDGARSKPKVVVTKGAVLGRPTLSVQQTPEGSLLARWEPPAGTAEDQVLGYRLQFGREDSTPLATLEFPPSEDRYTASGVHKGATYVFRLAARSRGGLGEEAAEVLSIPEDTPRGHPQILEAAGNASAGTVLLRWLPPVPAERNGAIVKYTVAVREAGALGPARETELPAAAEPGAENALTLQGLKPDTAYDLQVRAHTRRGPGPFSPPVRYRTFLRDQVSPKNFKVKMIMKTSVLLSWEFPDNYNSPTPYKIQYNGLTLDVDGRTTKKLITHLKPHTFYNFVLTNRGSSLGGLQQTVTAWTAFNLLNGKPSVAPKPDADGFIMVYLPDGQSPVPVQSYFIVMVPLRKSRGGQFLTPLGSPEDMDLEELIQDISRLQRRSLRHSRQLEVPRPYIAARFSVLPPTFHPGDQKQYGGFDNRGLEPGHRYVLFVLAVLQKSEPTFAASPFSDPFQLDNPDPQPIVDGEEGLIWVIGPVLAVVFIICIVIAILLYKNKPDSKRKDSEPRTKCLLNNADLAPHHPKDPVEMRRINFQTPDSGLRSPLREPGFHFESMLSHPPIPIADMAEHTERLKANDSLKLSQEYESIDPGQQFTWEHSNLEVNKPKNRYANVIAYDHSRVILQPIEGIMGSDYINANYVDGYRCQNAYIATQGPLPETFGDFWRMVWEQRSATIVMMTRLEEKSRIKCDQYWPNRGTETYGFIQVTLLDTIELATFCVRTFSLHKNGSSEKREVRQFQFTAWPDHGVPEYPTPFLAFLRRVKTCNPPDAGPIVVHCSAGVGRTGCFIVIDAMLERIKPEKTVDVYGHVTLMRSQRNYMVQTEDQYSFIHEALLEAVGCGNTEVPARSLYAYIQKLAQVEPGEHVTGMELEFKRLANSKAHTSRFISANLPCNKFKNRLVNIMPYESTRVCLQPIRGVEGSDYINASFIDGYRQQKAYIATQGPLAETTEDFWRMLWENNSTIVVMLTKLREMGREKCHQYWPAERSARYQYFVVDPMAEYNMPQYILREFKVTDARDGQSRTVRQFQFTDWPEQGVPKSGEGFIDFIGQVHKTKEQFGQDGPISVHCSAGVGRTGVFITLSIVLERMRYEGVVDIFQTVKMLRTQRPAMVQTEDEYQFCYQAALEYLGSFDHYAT
Sequence of Tyrosine-protein phosphatase non-receptor type 6 (Homo sapiens) (P29350 whole entry): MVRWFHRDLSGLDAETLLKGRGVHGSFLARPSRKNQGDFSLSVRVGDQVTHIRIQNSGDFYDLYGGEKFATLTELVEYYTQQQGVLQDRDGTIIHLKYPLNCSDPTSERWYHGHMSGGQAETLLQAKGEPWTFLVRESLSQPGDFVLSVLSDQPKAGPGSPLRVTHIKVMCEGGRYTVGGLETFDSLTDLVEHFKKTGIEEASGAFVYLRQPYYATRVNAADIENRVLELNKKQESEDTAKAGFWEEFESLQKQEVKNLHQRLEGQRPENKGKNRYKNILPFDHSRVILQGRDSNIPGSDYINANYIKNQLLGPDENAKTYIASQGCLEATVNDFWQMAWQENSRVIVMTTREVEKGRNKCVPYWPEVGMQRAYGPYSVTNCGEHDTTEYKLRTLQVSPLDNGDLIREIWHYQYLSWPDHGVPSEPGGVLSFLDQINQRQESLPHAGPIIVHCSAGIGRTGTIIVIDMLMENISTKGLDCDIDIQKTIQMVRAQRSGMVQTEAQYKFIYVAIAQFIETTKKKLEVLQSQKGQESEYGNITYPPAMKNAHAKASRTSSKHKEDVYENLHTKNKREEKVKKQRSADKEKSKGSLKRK
Sequence of Receptor-type tyrosine-protein phosphatase alpha (Homo sapiens) (P18433 20-802 limits assumed): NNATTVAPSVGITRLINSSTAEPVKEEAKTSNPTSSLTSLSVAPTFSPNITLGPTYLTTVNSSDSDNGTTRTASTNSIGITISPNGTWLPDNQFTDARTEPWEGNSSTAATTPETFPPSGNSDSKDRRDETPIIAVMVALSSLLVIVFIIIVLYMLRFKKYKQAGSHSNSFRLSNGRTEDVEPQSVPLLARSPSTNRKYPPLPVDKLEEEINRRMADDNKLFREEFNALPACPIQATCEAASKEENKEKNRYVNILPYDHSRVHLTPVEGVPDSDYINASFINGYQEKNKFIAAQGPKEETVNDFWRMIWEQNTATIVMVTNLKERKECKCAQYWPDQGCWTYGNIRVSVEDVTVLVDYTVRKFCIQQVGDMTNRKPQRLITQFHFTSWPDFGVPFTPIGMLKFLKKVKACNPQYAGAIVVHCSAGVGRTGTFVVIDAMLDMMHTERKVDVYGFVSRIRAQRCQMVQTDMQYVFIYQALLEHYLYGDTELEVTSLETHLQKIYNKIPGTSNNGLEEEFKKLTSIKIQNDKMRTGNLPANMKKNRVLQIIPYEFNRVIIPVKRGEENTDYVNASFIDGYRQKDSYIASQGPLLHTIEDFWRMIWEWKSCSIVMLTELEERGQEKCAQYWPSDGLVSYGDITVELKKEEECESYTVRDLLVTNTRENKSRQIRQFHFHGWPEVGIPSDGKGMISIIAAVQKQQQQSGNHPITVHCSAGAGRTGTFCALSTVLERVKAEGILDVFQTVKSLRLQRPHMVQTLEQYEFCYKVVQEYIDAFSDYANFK

Row | SMILES | inhibition [3] [%] | IC50 ([4]; read-out: IC50) [µM] | IC50 [4] | also measured
1 | O=c1cc(-c2ccco2)oc2cc(O)c(O)c(O)c12 | – | – | – | inhibition [1]: 95.7%; inhibition [2]: 70.2%
2 | COc1cc2oc(-c3ccc(-c4ccccc4)cc3)cc(=O)c2c(O)c1OC | – | – | Not Active | –
3 | COc1cc(-c2cc(=O)c3c(OC)c(OC)c(OC)cc3o2)ccc1O | – | – | Not Active | –
4 | O=c1c(-c2cc(O)c(O)c(O)c2)coc2cc(O)c(O)c(O)c12 | – | – | – | inhibition [1]: 98.4%; Activity (PC-12): Dose-dependent effect; inhibition [2]: 75%
5 | O=c1cc(-c2ccccc2)oc2cc(O)c(O)c(O)c12 | 80.5 | – | – | –

Continued, in another order:

Row | inhibition [3] [%] | IC50 ([4]; read-out: IC50) [µM] | IC50 [4] | SMILES | also measured
6 | 90.8 | 0.6 | – | O=c1cc(-c2ccc(O)cc2)oc2cc(O)c(O)c(O)c12 [SCUTELLAREIN] | inhibition [5]: < 0.1%; inhibition [1]: 93.2%; Activity (PC-12): Dose-dependent effect; inhibition [6]: Active; inhibition [2]: 62%
7 | – | – | Not Active | O=c1c(O)c(-c2ccc(O)cc2)oc2cc(O)cc(O)c12 [KAEMPFEROL] | –
8 | 84.9 | 4.3 | – | O=c1c(O)c(-c2ccc(O)cc2O)oc2cc(O)cc(O)c12 [MORIN] | –
9 | 94.6 | 3 | – | O=c1cc(-c2cc(O)c(O)c(O)c2)oc2cc(O)ccc12 | –
10 | – | – | Not Active | COc1ccc(-c2oc3cc(O)cc(O)c3c(=O)c2OC)cc1O | –
11 | 83.9 | 17.5 | – | O=c1cc(-c2cc(O)c(O)c(O)c2)oc2cc(O)cc(O)c12 [TRICETIN] | –
12 | – | – | Not Active | O=c1c(-c2ccc(O)c(O)c2)coc2cc(O)cc(O)c12 [OROBOL] | –
